Our source for the TGI values is PubChem BioAssay (NCI).

As a reminder, the TGI is the concentration at which net growth stops. High values mean lower sensitivity of the cells, low ones greater sensitivity of the cells.

The structures appear in SMILES notation.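 1) Cells in 96-well plates. 2) Compound, 48 h, 5 concentrations. 3) Linear interpolation between surrounding doses. 4) Unreached endpoint = highest concentration. TGI is the concentration that stops growth completely.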

Among the test systems are OVCAR-3 ovarian; SR leukemia; SF-539 CNS; MDA-N; EKVX NSCLC; HCT-15 colon; SK-MEL-5 melanoma; LOX IMVI melanoma; MCF7 breast; SNB-19 CNS.
Common to all, as to test: DTP human tumour cell line panel, 48 h

As to `CC(C)(C)OC(=O)NCC(c1c[nH]c2ccccc12)c1c[nH]c2ccccc12`, the TGI in the experiment on OVCAR-3 ovarian was determined as 30.6 µM; in the experiment on SR leukemia it was 32.4 µM; in the experiment on SF-539 CNS, 35.4 µM; in the experiment on MDA-N, 35.3 µM; with EKVX NSCLC, 26.2 µM; in the experiment with HCT-15 colon, 53.5 µM. The TGI with SK-MEL-5 melanoma is 26.7 µM; in the experiment with LOX IMVI melanoma, 35.3 µM; with MCF7 breast, over 100 µM; in the experiment with SNB-19 CNS it was 31.1 µM.
Turning to `Cc1cc2ccccc2oc(=O)/c1=N\Nc1ccccc1`, the TGI in the experiment on OVCAR-3 ovarian, with SR leukemia, in the experiment with SF-539 CNS, in the experiment on MDA-N, in the experiment on EKVX NSCLC and in the experiment on HCT-15 colon was over 100 µM throughout. For the same compound, the TGI in the experiment on SK-MEL-5 melanoma, in the experiment on LOX IMVI melanoma, with MCF7 breast and in the experiment with SNB-19 CNS was over 100 µM each time.
